Test results published in US6087376A (priority 1998, dated 2000).
Several values for one entry are separate records, joined by “and”; a condition that tells them apart may be missing. Identical values can stand only once. Entries after “also recorded” stand apart in the source; their conditions may differ. Like-named read-outs stand apart in the source and are kept apart here.

Experiments:
VMAT2 knockout mice = settings: mouse, in vivo; cited from earlier work
rat brain vesicles = settings: cited from earlier work
[1] = biological target: T1, vesicular monoamine transporter-2 (VMAT2), DTBZ/TBZ site, rat striatal vesicle membranes (Rattus norvegicus, UniProt Q01827); assay: [3H]DTBZ binding to rat striatal vesicles; settings: 2 nM [3H]DTBZ
T1 construct: from tissue; host or cells: rat striatum, synaptic vesicles

[2] = system: rat striatal synaptic vesicles; assay: [3H]DA release from striatal synaptic vesicles preloaded with [3H]DA; assay type: biochemical
Protocol: (§1) The homogenate was then centrifuged at 2,000×g for 10 min at 4° C. and the resulting supernatant was centrifuged at 10,000×g for 30 min at 4° C. Synaptosomes (buffy coat) were separated from the underlying mitochondria and cellular debris (reddish pellet) by gentle swirling in 2 mL of 0.32 M sucrose. The enriched synaptosome fraction (2.0 mL) was subjected to osmotic shock by addition of 7 mL distilled H2 0 and was homogenized with 5 up and down strokes of the TEFLON pestle. The osmolarity was restored by the addition of 900 μL of 0.25 M HEPES and 900 μL of 1.0 M neutral potassium-tatrate buffer (pH 7.5) followed by a 20 min centrifugation (20,000×g at 4° C.). The supernatant was then centrifuged for 60 min (55,000×g at 4° C.).
The final vesicle pellet from a pool of striata from three rats was resuspended in 3 mL of release assay buffer (in mM: 25 HEPES, 100 L-(+)-tartaric acid dipotassium salt, 0.05 EGTA, 0.10 EDTA, 2 Mg^2+ -ATP, and 1.7 ascorbic acid, pH 7.4) and then incubated with [^3 H]DA (0.3 μM) for 8 min at 37° C. […] [^3 H]DA efflux represents the net result of events, i.e., release and reuptake. […] The reaction was terminated by addition of 2.5 mL of ice-cold assay buffer containing 2 mM MgSO4. Samples were rapidly filtered through Whatman GF/F filters using the Brandel cell harvester.
The amount of drug-induced [^3 H]DA release from synaptic vesicles was calculated by subtracting the amount of tritium remaining in the drug-exposed samples from that remaining in the control samples (in the absence of drug). The amount of drug-induced [^3 H]DA release was then divided by the amount of tritium remaining in the control samples and was expressed as a percentage of control.
Concentration-response and kinetic data were analyzed by repeated-measures one-way ANOVA and between-group one-way ANOVA, respectively. When appropriate, Fisher's least significant difference post hoc test was used to determine significant differences between treatment means. IC50 and EC50 values were obtained by an iterative nonlinear least-squarescurve-fitting program (GraphPAD-PRIZM: GraphPAD, San Diego, Calif., U.S.A.) for one-site competition and sigmoidal concentration response, respectively. The t1/2 was obtained by an iterative nonlinear least-squares curve-fitting program for one-phase decay. KD and Bmax values were obtained by Scatchard analysis using an iterative linear least-squares curve-fitting program.

human VMAT2 [3] = settings: read-out: Ki, inhibition of monoamine uptake; cited from earlier work
[4] = biological target: [3H]DTBZ binding site, rat striatal homogenates; settings: read-out: Ki, inhibition of [3H]DTBZ binding; cited from earlier work
human VMAT2 [5] = settings: read-out: Ki, inhibition of [3H]DTBZ binding; cited from earlier work
monoamine oxidase = settings: cited from earlier work
[6] = system: rat striatal slices preloaded with [3H]DA; assay: [3H]DA release assay: drug-evoked [3H]overflow / fractional release from rat striatal slices preloaded with [3H]DA; assay type: cell-based
Protocol: (§2) Rat striata were rapidly dissected on ice and were sliced using a McIlwain tissue chopper. […] Slices were rinsed with 15 mL fresh buffer and then incubated in fresh buffer containing 0.1 μM [^3 H]DA (6-8 slices/3 mL) for an additional 30 min. Subsequently, slices were rinsed with 15 mL fresh buffer and transferred to a glass superfusion chamber. […] After 60 min of superfusion when basal outflow was stabilized, two 5-min samples (5 mL) were collected to determine basal [^3 H]outflow.
The concentration-response for each drug was determined using a repeated-measures design.
(§3) The pH and volume of the solubilized tissue samples were adjusted to those of the superfusate samples.
(§4) Fractional release for each superfusate sample was calculated by dividing the tritium collected in each sample by the total tritium present in the tissue at the time of sample collection. Fractional release was expressed as a percentage of total tritium in the tissue at the time of sample collection. Basal outflow was calculated from the average of the tritium collected in the two 5-min samples just before the addition of drug.
(§5) Inhibition of synaptosomal and vesicular [^3 H]DA uptake were analyzed by repeated-measures, one-way ANOVA, and by an iterative nonlinear least-squares curve-fitting program (GraphPAD-PRIZM; GraphPAD, San Diego, Calif.) to obtain IC50 values. Dunnett's post hoc test was used to compare treatment means to a single control mean. Also, Duncan's New Multiple Range Test or Fisher's LSD post hoc analysis were used to compare pairs of treatment means. Duncan's New Multiple Range Test was used when significant one-way ANOVA's were obtained or when significant main effects were obtained in the two-way ANOVA's. Fisher's LSD post hoc analysis is a more conservative test, which takes into account error which cumulates during multiple comparisons of pairs of means. Fisher's LSD analysis was used when the interaction term was significant in the two-way ANOVAs, specifically in the post hoc analysis of drug×time interactions. Statistical significance was reached when P<0.05 (two-tailed, unless otherwise indicated).

[7] = system: nicotine (10 μM)-evoked [3H]overflow from rat striatal slices; assay: Mecamylamine antagonism of nicotine-evoked [3H]overflow from rat striatal slices; assay type: cell-based
Protocol: as §2
To determine the ability of mecamylamine to antagonize nicotine-evoked [^3 H]overflow, a repeated-measure design was utilized also. Individual slices were superfused with a single concentration (0.01-100 μM) of mecamylamine for 60 min, followed by 60 min of superfusion with nicotine (10 μM) in the presence of the various mecamylamine concentrations. One slice in each experiment was superfused in the absence of mecamylamine to determine the effect of nicotine alone. A control slice was superfused with buffer alone.
as §3, §4, §5

[8] = biological target: T2, plasma membrane DA transporter (rat striatal synaptosomes) (Rattus norvegicus, UniProt P23977); assay: [3H]DA uptake assay, striatal synaptosomal preparation; assay type: biochemical; settings: nicotine 0.001 nM-100 μM
T2 construct: from tissue; host or cells: rat striatum, synaptosomes
Protocol: The homogenate was centrifuged at 2,000×g for 10 min at 4° C. […] The final protein concentration was 400 μg/mL. The assay was performed in duplicate in a total volume of 500 μL. […] The incubation continued for 10 min at 34° C. The reaction was terminated by the addition of 3 mL cold assay buffer (without 1 mM catechol). Samples were rapidly filtered through a Whatman GF/B filter using a Brandel cell harvester (model MP-43 RS, Biochemical Research and Development Laboratories, Inc., Gaithersburg, Md.) and the filter was subsequently washed 3 times with 4 mL of cold assay buffer containing 1 mM catechol. Filters were previously soaked for 2 hrs in the cold assay buffer containing 1 mM catechol. […] Filters were placed into scintillation vials, 10 mL of scintillation cocktail was added and radioactivity was determined by scintillation spectrometry.
(§6) Inhibition of synaptosomal and vesicular [^3 H]DA uptake were analyzed by repeated-measures, one-way ANOVA, and by an iterative nonlinear least-squares curve-fitting program (GraphPAD-PRIZM; GraphPAD, San Diego, Calif.) to obtain IC50 values. Dunnett's post hoc test was used to compare treatment means to a single control mean. Also, Duncan's New Multiple Range Test or Fisher's LSD post hoc analysis were used to compare pairs of treatment means. […]

[9] = biological target: T3, synaptic vesicular monoamine transporter (VMAT2), rat striatal synaptic vesicles (Rattus norvegicus, UniProt Q01827); assay: [3H]DA uptake assay, striatal synaptic vesicles; assay type: biochemical; settings: nicotine
T3 construct: from tissue; host or cells: rat striatum, synaptic vesicles
Protocol: as §1
Samples were rapidly filtered through Whatman GF/F filters using the Brandel cell harvester.
as §6

[10] = biological target: central nicotinic receptors; settings: read-out: Kd, binding to nicotinic receptors; cited from earlier work
[11] = system: nicotinic receptors in mouse brain; settings: in vivo; cited from earlier work
[12] = system: locomotor activity in rats; settings: rat, in vivo; cited from earlier work
[13] = system: conditioned place preference in rats; settings: rat, in vivo; cited from earlier work
[14] = system: rat striatal slices preloaded with [3H]DA; settings: cited from earlier work
[15] = system: self-administration by rats; settings: rat, in vivo; cited from earlier work
[16] = system: nicotinic receptors in rat brain; settings: in vivo; cited from earlier work
reserpine site on VMAT2 = settings: read-out: IC50, inhibition of binding to the reserpine site; cited from earlier work

T2 sequence (P23977 whole entry): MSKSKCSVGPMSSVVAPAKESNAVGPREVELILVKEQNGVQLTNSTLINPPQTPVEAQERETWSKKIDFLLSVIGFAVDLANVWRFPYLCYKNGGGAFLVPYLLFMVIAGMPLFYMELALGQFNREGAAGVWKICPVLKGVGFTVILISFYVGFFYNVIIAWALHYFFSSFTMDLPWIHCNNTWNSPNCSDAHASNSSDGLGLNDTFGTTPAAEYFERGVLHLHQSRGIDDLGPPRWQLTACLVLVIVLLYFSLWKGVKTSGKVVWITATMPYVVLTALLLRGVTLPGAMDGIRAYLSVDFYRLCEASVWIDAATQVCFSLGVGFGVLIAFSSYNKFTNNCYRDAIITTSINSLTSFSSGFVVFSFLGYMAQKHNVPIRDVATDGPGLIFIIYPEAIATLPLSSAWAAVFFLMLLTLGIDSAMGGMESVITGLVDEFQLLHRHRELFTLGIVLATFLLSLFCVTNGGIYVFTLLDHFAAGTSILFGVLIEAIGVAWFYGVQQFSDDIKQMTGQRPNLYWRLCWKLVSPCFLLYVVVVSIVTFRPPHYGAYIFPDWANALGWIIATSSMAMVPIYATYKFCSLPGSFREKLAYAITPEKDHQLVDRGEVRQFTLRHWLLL
T3 sequence (Q01827 whole entry): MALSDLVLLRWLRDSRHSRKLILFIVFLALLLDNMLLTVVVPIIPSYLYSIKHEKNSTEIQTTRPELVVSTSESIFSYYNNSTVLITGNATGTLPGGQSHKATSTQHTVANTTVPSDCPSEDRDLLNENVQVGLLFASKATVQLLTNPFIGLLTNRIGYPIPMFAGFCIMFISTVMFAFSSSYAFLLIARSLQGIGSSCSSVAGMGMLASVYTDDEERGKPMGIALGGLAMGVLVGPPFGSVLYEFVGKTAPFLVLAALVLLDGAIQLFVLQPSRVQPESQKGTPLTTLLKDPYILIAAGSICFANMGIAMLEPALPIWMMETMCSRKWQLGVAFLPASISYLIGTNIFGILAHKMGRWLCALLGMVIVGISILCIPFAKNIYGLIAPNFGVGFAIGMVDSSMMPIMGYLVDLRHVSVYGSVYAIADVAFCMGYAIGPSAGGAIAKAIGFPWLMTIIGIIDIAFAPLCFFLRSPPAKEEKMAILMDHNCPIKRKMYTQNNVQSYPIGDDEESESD
T1 sequence (Q01827 whole entry): as above

CC(N)Cc1ccccc1 (stereo not shown) [amphetamine]
conditioned place preference in VMAT2 knockout vs wild-type mice (VMAT2 knockout mice): diminished amphetamine-induced conditioned place preference

COc1cc2c(cc1OC)C1CC(=O)C(CC(C)C)CN1CC2 (stereo not shown) [Tetrabenazine]
effect on spontaneous efflux of [3H]DA (rat brain vesicles): does not alter spontaneous efflux

C[C@H](N)Cc1ccccc1 [d-Amphetamine]
lowest concentration to significantly inhibit [3H]DTBZ binding [1]: 10 µM
potency in releasing DA from synaptic vesicles vs lobeline [2]: 10 fold
lowest concentration to evoke [3H]DA release from vesicles ([2]; 8 min, 37° C.): 1 µM
EC50 ([2]; 8 min, 37° C., read-out: EC50, evoked [3H]DA release from synaptic vesicles): 2.22 ± 0.13 µM
Ki (human VMAT2 [3]): ~2 µM
Ki [4]: > 20 µM
Ki (human VMAT2 [5]): 300 µM
inhibition of monoamine oxidase (monoamine oxidase): inhibits monoamine oxidase

CN1CCC[C@H]1c1cccnc1 [Nicotine]
minimal effective concentration ([6]; Rattus norvegicus, read-out: lowest concentration which evoked a significant increase in [3H]overflow): 0.05 µM
time to peak fractional release after addition of drug ([6]; nicotine): 10 to 15 min
peak fractional release ([6]; nicotine 100 μM): 2 % of total tritium in the slice
total [3H]overflow ([7]; mecamylamine 0 μM (control)): 5.60 ± 1.20
inhibition of [3H]DA uptake into striatal synaptosomes [8]: did not inhibit; also recorded: no inhibition of synaptosomal [^3 H]DA uptake was observed; also recorded: no effect was observed
concentration giving significant inhibition of vesicular [3H]DA uptake [9]: 1 mM and ~ 1 mM
Kd [10]: 0.001 to 0.007 µM
number of nicotinic receptors after chronic treatment [11]: increase in the number of nicotinic receptors
locomotor activity [12]: increase locomotor activity
conditioned place preference [13]: produce conditioned place preference
mechanism of nicotine-evoked DA release [14]: calcium-dependent, mecamylamine-sensitive and mediated by nicotinic receptors
self-administration [15]: avidly self-administered by rats
number of nicotinic receptors after chronic treatment [16]: increase in the number of nicotinic receptors

CNC1(C)C2CCC(C2)C1(C)C (stereo not shown) [Mecamylamine]
inhibition at 0.01 µM ([7]; Rattus norvegicus, mecamylamine 0.01 μM, read-out: inhibition of nicotine's effect (fractional release)): 36%
minimal effective concentration ([7]; Rattus norvegicus, read-out: lowest concentration to produce significant inhibition of nicotine's effect (fractional release, collapsed across time)): 0.01 µM
Total [3H]overflow evoked by nicotine ([7]; mecamylamine 0.01 μM): 3.57 ± 1.52
Total [3H]overflow evoked by nicotine ([7]; mecamylamine 0.1 μM, P<0.05 one-tailed): 2.40 ± 0.87
Total [3H]overflow evoked by nicotine ([7]; mecamylamine 1 μM, P<0.05 two-tailed): 1.59 ± 0.64
Total [3H]overflow evoked by nicotine ([7]; mecamylamine 10 μM, P<0.05 two-tailed): 1.02 ± 0.43
Total [3H]overflow evoked by nicotine ([7]; mecamylamine 100 μM, P<0.05 two-tailed): 0.54 ± 0.32

CN[C@@H](C)Cc1ccccc1 [Methamphetamine]
IC50 (reserpine site on VMAT2): 0.4 µM
